Test results: ChEMBL document CHEMBL5108012, “Discovery of 2,5-diphenyl-1,3,4-thiadiazole derivatives as HDAC inhibitors with DNA binding affinity” (Eur J Med Chem, 2022)
Activity calls are given as the source filed them. No cut-off for these calls is given here.

Tests used:
[1] = tested on: HeLa; experiment: Antiproliferative activity against human HeLa cells after 48 hrs by CCK-8 assay; format: functional, cell-based
[2] = target: Histone deacetylase 1 (Homo sapiens, UniProt Q13547); experiment: Inhibition of HDAC1 in human HeLa cell nuclear extract using Boc-Lys(Ac)-AMC or Boc-Lys(triflouroacetyl)-AMC as substrate incubated for 30 mins and measured by fluorescence assay; format: cell-free
[3] = tested on: HCT-116; experiment: Induction of apoptosis in human HCT-116 cells assessed as increase in cleaved caspase-3 expression at 0.17 to 1.5 uM incubated for 48 hrs by Western blot analysis; format: functional, cell-based; conditions: dose 0.17-1.5 µM
[4] = target: Histone deacetylase (Homo sapiens) (UniProt Q13547+O15379+Q9UBN7+Q92769+Q9UQL6+Q8WUI4+Q9BY41+Q96DB2+P56524+Q9UKV0+Q969S8); experiment: Inhibition of HDAC in human HCT-116 cells assessed as increase in acetylated HH3 expression expression at 0.17 to 1.5 uM incubated for 48 hrs by Western blot analysis; format: cell-based; conditions: dose 0.17-1.5 µM
[5] = tested on: HCT-116; experiment: Induction of apoptosis in human HCT-116 cells assessed as early apoptotic cells at 1.5 uM incubated for 48 hrs by PI and annexin V-FITC staining based flow cytometry (reference value: 3.4%); format: functional
[6] = tested on: MC-38; experiment: Antiproliferative activity against mouse MC38 cells after 48 hrs by CCK-8 assay; format: functional, cell-based; conditions: MC-38, 48 h
[7] = tested on: MOLT-4; experiment: Antiproliferative activity against human MOLT-4 cells after 48 hrs by CCK-8 assay; format: functional, cell-based; conditions: MOLT-4, 48 h
[8] = tested on: Calf thymus DNA; experiment: Binding affinity to calf thymus DNA at 50 uM incubated for 30 mins and measured by fluorescence spectroscopy; format: nucleic-acid assay; conditions: Bos taurus
[9] = tested on: HCT-116; experiment: Downregulation of SSRP-1 expression in human HCT-116 cells at 0.17 to 1.5 uM measured after 24 hrs by Western blot analysis; format: functional, cell-based; conditions: dose 0.17-1.5 µM
[10] = target: T1, Protein deacetylase HDAC6 (Homo sapiens, UniProt Q9UBN7); experiment: Inhibition of HDAC6 in human HeLa cell nuclear extract using Boc-Lys(Ac)-AMC or Boc-Lys(triflouroacetyl)-AMC as substrate incubated for 30 mins and measured by fluorescence assay; format: cell-free
T1 sequence (Q9UBN7 whole entry): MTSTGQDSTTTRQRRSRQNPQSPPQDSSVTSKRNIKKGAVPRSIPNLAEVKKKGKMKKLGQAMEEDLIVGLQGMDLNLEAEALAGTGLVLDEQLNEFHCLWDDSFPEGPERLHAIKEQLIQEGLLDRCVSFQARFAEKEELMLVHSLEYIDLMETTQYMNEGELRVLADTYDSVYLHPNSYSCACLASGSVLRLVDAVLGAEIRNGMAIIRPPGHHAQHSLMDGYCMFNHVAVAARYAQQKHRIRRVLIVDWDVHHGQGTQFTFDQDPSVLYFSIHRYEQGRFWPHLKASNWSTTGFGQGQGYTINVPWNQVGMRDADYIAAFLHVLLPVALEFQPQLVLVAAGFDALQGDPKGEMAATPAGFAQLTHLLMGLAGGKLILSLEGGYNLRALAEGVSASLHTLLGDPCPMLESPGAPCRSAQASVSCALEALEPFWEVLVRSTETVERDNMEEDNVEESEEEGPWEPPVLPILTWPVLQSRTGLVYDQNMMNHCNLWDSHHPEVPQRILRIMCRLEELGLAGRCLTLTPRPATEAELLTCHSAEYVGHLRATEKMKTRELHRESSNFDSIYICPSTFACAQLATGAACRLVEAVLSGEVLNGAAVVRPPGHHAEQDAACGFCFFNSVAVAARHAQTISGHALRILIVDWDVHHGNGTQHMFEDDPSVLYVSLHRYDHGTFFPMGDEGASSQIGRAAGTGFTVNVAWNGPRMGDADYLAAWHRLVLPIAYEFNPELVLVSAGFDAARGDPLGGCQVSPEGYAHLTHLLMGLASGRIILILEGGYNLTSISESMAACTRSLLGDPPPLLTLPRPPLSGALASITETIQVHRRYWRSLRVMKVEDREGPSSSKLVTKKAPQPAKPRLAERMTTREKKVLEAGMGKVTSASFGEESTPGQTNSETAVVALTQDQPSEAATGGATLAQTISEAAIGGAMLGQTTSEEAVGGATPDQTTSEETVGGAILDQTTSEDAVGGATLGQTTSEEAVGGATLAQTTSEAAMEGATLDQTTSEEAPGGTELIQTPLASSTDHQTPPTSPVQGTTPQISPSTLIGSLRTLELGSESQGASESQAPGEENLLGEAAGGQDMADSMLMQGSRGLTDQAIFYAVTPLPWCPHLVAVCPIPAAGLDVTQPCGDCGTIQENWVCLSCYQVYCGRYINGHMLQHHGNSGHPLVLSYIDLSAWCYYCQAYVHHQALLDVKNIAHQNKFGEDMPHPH

[11] = tested on: HCT-116; experiment: Antiproliferative activity against human HCT-116 cells after 48 hrs by CCK-8 assay; format: functional, cell-based; conditions: HCT-116, 48 h
[12] = tested on: HCT-116; experiment: Downregulation of SPT16 expression in human HCT-116 cells at 0.17 to 1.5 uM measured after 24 hrs by Western blot analysis; format: functional, cell-based; conditions: dose 0.17-1.5 µM
[13] = tested on: MC-38; experiment: Antitumor activity against mouse MC38 cells xenografted in C57BL/6 mouse assessed as induction of apoptosis in tumor at 50 to 100 mg/kg, ip administered every 2 days for 16 consecutive days measured by TUNEL staining based assay; format: functional, organism-based; conditions: dose 50-100 mg/kg, time 16.0 day

Sequence of Histone deacetylase 1 (Q13547 whole entry): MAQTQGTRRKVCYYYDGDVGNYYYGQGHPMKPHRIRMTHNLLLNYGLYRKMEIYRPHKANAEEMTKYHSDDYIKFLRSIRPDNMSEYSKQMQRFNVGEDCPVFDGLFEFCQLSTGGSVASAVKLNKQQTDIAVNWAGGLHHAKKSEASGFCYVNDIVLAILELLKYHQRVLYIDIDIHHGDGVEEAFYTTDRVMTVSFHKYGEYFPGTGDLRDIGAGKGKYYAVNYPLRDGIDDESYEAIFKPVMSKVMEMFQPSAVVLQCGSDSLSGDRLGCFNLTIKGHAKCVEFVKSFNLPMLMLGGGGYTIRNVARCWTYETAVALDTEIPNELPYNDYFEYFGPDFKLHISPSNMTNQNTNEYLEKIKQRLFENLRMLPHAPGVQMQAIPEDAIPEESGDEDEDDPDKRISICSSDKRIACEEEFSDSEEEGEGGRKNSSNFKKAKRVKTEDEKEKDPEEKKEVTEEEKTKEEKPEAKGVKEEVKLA

## O=C(CCCCCOc1cccc(-c2nnc(-c3ccccc3)s2)c1)NO
[1]
  IC50: 0.78 µM
[2]
  IC50: 0.015 µM
[3]
  Activity: Active
[4]
  inhibition: Active
[5]
  Activity: 38.5%
[6]
  IC50: 0.43 µM
[7]
  IC50: 0.15 µM
[8]
  Activity: Active
[9]
  Activity: Active
[10]
  IC50: 0.02 µM
[11]
  IC50: 0.47 µM
[12]
  Activity: Active
[13]
  Activity: Active
